Where two headings read alike, the source gives them in different places.
Key:
[1] = tested on: Key Broadleaf and Grass Weed as well as Crop Species; experiment: Post-Emergent Test I: postemergent herbicidal activity, visual phytotoxicity rating 10 days after treatment (Table 5); type: in vivo; conditions: for Visual Growth Reduction (%) 10 Days After Application ECHCG: barnyardgrass (Echinochloa crus-galli); for pest or weed control at 4000 g/ha / pest or weed control at 3960 g/ha: post-emergence, 240 h, 10 days after application
Description: Herbicidal evaluations were made visually on a scale of 0 to 100 where 0 represents no activity and 100 represents complete plant death. Post-Emergent Test I: Seeds of test species were obtained from commercial suppliers and planted into a 5″-round pot containing soil-less media mix (Metro-Mix 360®, Sun Gro Horticulture). Postemergence treatments were planted 8-12 days (d) prior to application and cultured in a greenhouse equipped with supplemental light sources to provide a 16 h photoperiod at 24-29° C. All pots were surface irrigated. Approximately 10 milligrams (mg) of each compound were dissolved in 1.3 mL acetone-DMSO (97:3, volume per volume (v/v)) and diluted with 4.1 mL water-isopropanol-crop oil concentrate (78:20:2, v/v/v) containing 0.02% Triton X-155. Treatments were serial diluted with the above formulation solvent to provide 1.85, 0.926, 0.462 and 0.231 milligrams per milliliter (mg/mL) of test compound delivered in 2.7 mL/pot (roughly equivalent to 4.0, 2.0, 1.0, and 0.5 kg/ha, respectively). Formulated compounds were applied using a DeVilbiss® compressed air sprayer at 2-4 pounds per square inch (psi). Following treatment, pots were returned to the greenhouse for the duration of the experiment. All pots were sub-irrigated as needed to provide optimum growing conditions. All pots were fertilized one time per week by subirrigating with Peters Peat-Lite Special® fertilizer (20-10-20). Phytotoxicity ratings were obtained 10 days after treatment postemergence applications. All evaluations were made visually on a scale of 0 to 100 where 0 represents no activity and 100 represents complete plant death and are presented as indicated in Table 4.

[2] = tested on: Key Broadleaf and Grass Weed as well as Crop Species; experiment: Pre-Emergent Test I: preemergent herbicidal activity, herbicidal effect rating 14 days after treatment (Table 6); type: in vivo; conditions: for Visual Growth Reduction (%) 14 Days After Application ECHCG: barnyardgrass (Echinochloa crus-galli); for Visual Growth Reduction (%) 14 Days After Application SETFA: giant foxtail (Setaria faberi); for Visual Growth Reduction (%) 14 Days After Application IPOHE: ivyleaf morningglory (Ipomoea hederecea); for Visual Growth Reduction (%) 14 Days After Application HELAN: sunflower (Helianthus annuus); for Visual Growth Reduction (%) 14 Days After Application AVEFA: wild oats (Avena fatua)
Description: Herbicidal evaluations were made visually on a scale of 0 to 100 where 0 represents no activity and 100 represents complete plant death. Pre-Emergent Test I: Seeds of test species were planted into round plastic pots (5-inch diameter) containing sandy loam soil. After planting, all pots were sub-irrigated 16 h prior to compound application. Compounds were dissolved in a 97:3 v/v mixture of acetone and DMSO and diluted to the appropriate concentration in a final application solution containing water, acetone, isopropanol, DMSO and Agri-dex (crop oil concentrate) in a 59:23:15:1.0:1.5 v/v ratio and 0.02% w/v (weight/volume) of Triton X-155 to obtain the spray solution containing the highest application rate. The high application rate was serial diluted with the above application solution to provide delivery of the compound at rates ½×, ¼× and ⅛× of the highest rate (equivalent to 4.0, 2.0, 1.0, and 0.5 kg/ha, respectively). Formulated compound (2.7 mL) was applied pipetted evenly over the soil surface followed by incorporation with water (15 mL). Following treatment, pots were returned to the greenhouse for the duration of the experiment. The greenhouse was programmed for an approximate 15 h photoperiod which was maintained at about 23-29° C. during the day and 22-28° C. during the night. Nutrients and water were added on a regular basis through surface irrigation and supplemental lighting was provided with overhead metal halide 1000-Watt lamps as necessary. Herbicidal effect ratings were obtained 14 days after treatment. All evaluations were made relative to appropriate controls on a scale of 0 to 100 where 0 represents no herbicidal effect and 100 represents plant death or lack of emergence from the soil and are presented as indicated in Table 4.

[3] = giant foxtail (Setaria faberi), 4 kg ai/ha, read-out: Visual Growth Reduction (%) 10 Days After Application SETFA
[4] = ivyleaf morningglory (Ipomoea hederecea), 4 kg ai/ha, read-out: Visual Growth Reduction (%) 10 Days After Application IPOHE
[5] = sunflower (Helianthus annuus), 4 kg ai/ha, read-out: Visual Growth Reduction (%) 10 Days After Application HELAN
[6] = wild oats (Avena fatua), 4 kg ai/ha, read-out: Visual Growth Reduction (%) 10 Days After Application AVEFA
[7] = giant foxtail (Setaria faberi), 3.96 kg ai/ha, read-out: Visual Growth Reduction (%) 10 Days After Application SETFA
[8] = ivyleaf morningglory (Ipomoea hederecea), 3.96 kg ai/ha, read-out: Visual Growth Reduction (%) 10 Days After Application IPOHE
[9] = sunflower (Helianthus annuus), 3.96 kg ai/ha, read-out: Visual Growth Reduction (%) 10 Days After Application HELAN
[10] = wild oats (Avena fatua), 3.96 kg ai/ha, read-out: Visual Growth Reduction (%) 10 Days After Application AVEFA

| SMILES | Visual Growth Reduction (%) 10 Days After Application ECHCG ([1]; 4 kg ai/ha) | pest or weed control at 4000 g/ha [1, 3] [%] | pest or weed control at 4000 g/ha [1, 4] [%] | pest or weed control at 4000 g/ha [1, 5] [%] | pest or weed control at 4000 g/ha [1, 6] [%] | Visual Growth Reduction (%) 14 Days After Application ECHCG ([2]; 4 kg ai/ha) | Visual Growth Reduction (%) 14 Days After Application SETFA ([2]; 4 kg ai/ha) | Visual Growth Reduction (%) 14 Days After Application IPOHE ([2]; 4 kg ai/ha) | Visual Growth Reduction (%) 14 Days After Application HELAN ([2]; 4 kg ai/ha) | Visual Growth Reduction (%) 14 Days After Application AVEFA ([2]; 4 kg ai/ha) | Visual Growth Reduction (%) 10 Days After Application ECHCG ([1]; 3.96 kg ai/ha) | pest or weed control at 3960 g/ha [1, 7] [%] | pest or weed control at 3960 g/ha [1, 8] [%] | pest or weed control at 3960 g/ha [1, 9] [%] | pest or weed control at 3960 g/ha [1, 10] [%] | Visual Growth Reduction (%) 14 Days After Application ECHCG ([2]; 3.96 kg ai/ha) | Visual Growth Reduction (%) 14 Days After Application SETFA ([2]; 3.96 kg ai/ha) | Visual Growth Reduction (%) 14 Days After Application IPOHE ([2]; 3.96 kg ai/ha) | Visual Growth Reduction (%) 14 Days After Application HELAN ([2]; 3.96 kg ai/ha) | Visual Growth Reduction (%) 14 Days After Application AVEFA ([2]; 3.96 kg ai/ha) |
| --- | --- | --- | --- | --- | --- | --- | --- | --- | --- | --- | --- | --- | --- | --- | --- | --- | --- | --- | --- | --- |
| Nc1c(Cl)c(C(=O)O)nc(-c2cc3c(cc2F)OC(F)(F)O3)c1Cl [Compound 3] | C (75-84) | 75 to 84 | 75 to 84 | 75 to 84 | 75 to 84 |  |  |  |  |  |  |  |  |  |  |  |  |  |  |  |
| Nc1c(Cl)c(C(=O)O)nc(-c2ccc3c(c2F)OC(F)(F)O3)c1Cl [Compound 5] | G (0-29) | 75 to 84 | 95 to 100 | 95 to 100 | 0 to 29 |  |  |  |  |  |  |  |  |  |  |  |  |  |  |  |
| COC(=O)c1nc(-c2cccc3c2OCO3)c(F)c(N)c1Cl [Compound 71, Methyl 4-amino-6-(benzo[d][1,3]dioxol-4-yl)-3-chloro-5-fluoropicolinate] | G (0-29) | 0 to 29 | 75 to 84 | 95 to 100 | 0 to 29 | F (30-44) | G (0-29) | E (45-59) | A (95-100) | F (30-44) |  |  |  |  |  |  |  |  |  |  |
| Nc1c(F)c(-c2cccc3c2OCO3)nc(C(=O)O)c1Cl [Compound 72, 4-Amino-6-(benzo[d][1,3]dioxol-4-yl)-3-chloro-5-fluoropicolinic acid] | G (0-29) | 0 to 29 | 0 to 29 | 95 to 100 | 0 to 29 | C (75-84) | G (0-29) | G (0-29) | A (95-100) | D (60-74) |  |  |  |  |  |  |  |  |  |  |
| COC(=O)c1nc(-c2cccc3c2OC(F)(F)O3)c(F)c(N)c1Cl [Compound 73] |  |  |  |  |  |  |  |  |  |  | G (0-29) | 0 to 29 | 75 to 84 | 95 to 100 | 0 to 29 | G (0-29) | G (0-29) | C (75-84) | A (95-100) | G (0-29) |
| Nc1c(F)c(-c2cccc3c2OC(F)(F)O3)nc(C(=O)O)c1Cl [Compound 74] |  |  |  |  |  |  |  |  |  |  |  | 0 to 29 | 60 to 74 | 95 to 100 | 0 to 29 | A (95-100) | E (45-59) | D (60-74) | A (95-100) | D (60-74) |

Source: patent US9149038B2, “4-amino-6-(heterocyclic)picolinates and 6-amino-2-(heterocyclic)pyrimidine-4-carboxylates and their use as herbicides” (Dow AgroSciences LLC, priority 2013, dated 2015)
